Some test systems named below: DU-145; MOLT-4; TK-10; SK-MEL-5; Hs-578T; U-251; OVCAR-8; HCT-15; NCI-H226; NCI-H23; NCI-H522; NCI/ADR-RES; ACHN; SK-OV-3; A498; OVCAR-5; CAKI-1; MDA-MB-435; M14; MCF7.
Common to all, as to experiment: inhibition of tumour cell growth, NCI panel, 48 h

Each structure is given as a SMILES string.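 Interpolation was linear, between the two tested concentrations surrounding the appropriate level; five concentrations were tested over 48 hours in 96-well plates. Abbreviation: GI50, concentration required for 50% inhibition of growth.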 The source made the active and inactive calls. Cut-off read from the data, not from the text of the source: active = GI50 up to about 1.1 µM and inactive = higher.

Consider `Nc1ccc2[nH]cc(CCC(=O)O)c2c1`, for which the GI50 in the assay on DU-145, in the assay on MOLT-4, in the assay on TK-10, with SK-MEL-5, in the assay on Hs-578T and in the assay with U-251 was > 100 µM (inactive) in each case. Also, the GI50 is > 100 µM (inactive) with OVCAR-8; > 100 µM in the assay on HCT-15; > 100 µM (inactive) in the assay with NCI-H226; > 100 µM (inactive) in the assay on NCI-H23; > 100 µM (inactive) in the assay with NCI-H522; > 100 µM (inactive) in the assay with NCI/ADR-RES. Moreover, the GI50 with ACHN, in the assay with SK-OV-3, with A498, in the assay with OVCAR-5, in the assay on CAKI-1 and in the assay on MDA-MB-435 was > 100 µM (inactive) each time. For the same compound, the GI50 in the assay on M14 and in the assay on MCF7 was > 100 µM (inactive) throughout.

In the case of `Cc1nc(N)nc(S)c1CCC(=O)O`, the GI50 in the assay on DU-145, in the assay on MOLT-4, in the assay on TK-10, with SK-MEL-5, in the assay with Hs-578T and with U-251 was > 100 µM (inactive) in each case. The GI50 in the assay with OVCAR-8 is > 100 µM (inactive); in the assay on HCT-15, > 100 µM; in the assay with NCI-H226 it was > 100 µM (inactive); with NCI-H23, > 100 µM (inactive); in the assay on NCI-H522 it was > 100 µM (inactive); in the assay with NCI/ADR-RES, > 100 µM (inactive). Besides, the GI50 in the assay with ACHN, with SK-OV-3, in the assay on A498, in the assay on OVCAR-5, in the assay on CAKI-1 and in the assay with MDA-MB-435 was > 100 µM (inactive) throughout. The GI50 with M14 and in the assay with MCF7 was > 100 µM (inactive) throughout.

On to `Cc1n2nc(N)sc2n[n+]1CC(=O)c1ccccc1`, for which the GI50 in the assay on DU-145, in the assay with MOLT-4, in the assay with TK-10, in the assay with SK-MEL-5, in the assay on Hs-578T and in the assay with U-251 was > 100 µM (inactive) each time. For the same compound, the GI50 in the assay on OVCAR-8 was > 100 µM (inactive); with HCT-15, > 100 µM; in the assay on NCI-H226, > 100 µM (inactive); with NCI-H23 it was > 100 µM (inactive); with NCI-H522, > 100 µM (inactive); in the assay with NCI/ADR-RES, > 100 µM (inactive). The GI50 is > 100 µM (inactive) with ACHN; 24.3 µM (inactive) in the assay with SK-OV-3; > 100 µM (inactive) in the assay on A498; > 100 µM (inactive) with OVCAR-5; > 100 µM (inactive) in the assay with CAKI-1; > 100 µM (inactive) with MDA-MB-435. Besides, the GI50 with M14 and in the assay on MCF7 was > 100 µM (inactive) each time.

On to `CN1CCN(CCn2c3c4ccccc4ccc3c3oc(=O)c4ccccc4c32)CC1`, for which the GI50 with DU-145 is > 10 µM (inactive); in the assay with MOLT-4 it was 1.5 µM (inactive); in the assay on TK-10 it was 10.5 µM (inactive); in the assay with SK-MEL-5 it was 1.78 µM (inactive); in the assay with Hs-578T it was 4.79 µM (inactive); in the assay on U-251, 2.49 µM (inactive). Besides, the GI50 was 1.52 µM (inactive) in the assay with OVCAR-8; 2.72 µM in the assay with HCT-15; 16.6 µM (inactive) in the assay with NCI-H226; 5.83 µM (inactive) with NCI-H23; 4.55 µM (inactive) in the assay with NCI-H522; 6.87 µM (inactive) with NCI/ADR-RES. For the same compound, the GI50 was 3.05 µM (inactive) with ACHN; 12.7 µM (inactive) in the assay with SK-OV-3; 5.09 µM (inactive) in the assay on A498; 5.74 µM (inactive) in the assay with OVCAR-5; 4.97 µM (inactive) with CAKI-1; 1.88 µM (inactive) in the assay on MDA-MB-435. For the same compound, the GI50 is 1.68 µM (inactive) in the assay on M14 and 1.55 µM (inactive) in the assay with MCF7.

In the case of `CCCCCCCCCCCCc1ccsc1-c1ccc(-c2ccc(-c3sc(-c4cc(CCCCCCCCCCCC)c(-c5ccc(-c6ccc(-c7sccc7CCCCCCCCCCCC)s6)s5)s4)cc3CCCCCCCCCCCC)s2)s1`, the GI50 in the assay with DU-145, in the assay on MOLT-4, in the assay on TK-10, in the assay on SK-MEL-5, in the assay with Hs-578T and with U-251 was > 100 µM (inactive) throughout. Also, the GI50 with OVCAR-8 is > 100 µM (inactive); with HCT-15, > 100 µM; with NCI-H226, > 100 µM (inactive); with NCI-H23, > 100 µM (inactive); with NCI-H522 it was > 100 µM (inactive); in the assay on NCI/ADR-RES, > 100 µM (inactive). Moreover, the GI50 in the assay with ACHN, in the assay with SK-OV-3, in the assay with A498, with OVCAR-5, with CAKI-1 and in the assay with MDA-MB-435 was > 100 µM (inactive) throughout. Also, the GI50 in the assay on M14 and in the assay with MCF7 was > 100 µM (inactive) each time.

Regarding `O=P(O)(O)CN1CCNCCN(CP(=O)(O)O)CC1`, the GI50 with DU-145 is > 100 µM (inactive); in the assay with MOLT-4 it was 12.5 µM (inactive); in the assay on TK-10, > 49.4 µM (inactive); in the assay on SK-MEL-5 it was 14 µM (inactive); in the assay on Hs-578T it was > 100 µM (inactive); in the assay with U-251 it was > 100 µM (inactive). In addition, the GI50 in the assay with OVCAR-8 was 28.4 µM (inactive); with HCT-15, 8.89 µM; with NCI-H226, > 38.5 µM (inactive); with NCI-H23, 54.6 µM (inactive); with NCI-H522, 19.9 µM (inactive); with NCI/ADR-RES, > 19.9 µM (inactive). Besides, the GI50 was > 100 µM (inactive) in the assay with ACHN; 23.7 µM (inactive) in the assay on SK-OV-3; 33.7 µM (inactive) with A498; > 42.3 µM (inactive) with OVCAR-5; > 90.6 µM (inactive) in the assay on CAKI-1; 36.5 µM (inactive) with MDA-MB-435. The GI50 in the assay with M14 is 37.9 µM (inactive); in the assay on MCF7 it was 8.79 µM (inactive).

On to `CCCCCCCCCCCCCCCCCC(=O)Nc1ccn(C2CCC(COP(=O)(O)O)O2)c(=O)n1` (stereo not given), for which the GI50 with DU-145, in the assay on MOLT-4, in the assay with TK-10, with SK-MEL-5, in the assay with Hs-578T and in the assay with U-251 was > 100 µM (inactive) in each case. Besides, the GI50 in the assay with OVCAR-8 was > 100 µM (inactive); in the assay on HCT-15, > 100 µM; in the assay with NCI-H226 it was > 100 µM (inactive); in the assay on NCI-H23 it was > 100 µM (inactive); with NCI-H522, > 100 µM (inactive); in the assay on NCI/ADR-RES it was > 100 µM (inactive). For the same compound, the GI50 with ACHN, in the assay with SK-OV-3, in the assay on A498, in the assay on OVCAR-5, in the assay on CAKI-1 and in the assay with MDA-MB-435 was > 100 µM (inactive) throughout. Besides, the GI50 with M14 and with MCF7 was > 100 µM (inactive) in each case.

`c1cc(-c2cnc(-c3ccc4c(c3)CCCO4)o2)ccn1`: the GI50 in the assay with DU-145 is 11.3 µM (inactive); in the assay on MOLT-4, 5.62 µM (inactive); with TK-10, 12.7 µM (inactive); in the assay on SK-MEL-5, 12.6 µM (inactive); in the assay with Hs-578T it was 17.1 µM (inactive); in the assay on U-251, 16.7 µM (inactive). The GI50 in the assay with OVCAR-8 is 13.8 µM (inactive); in the assay on HCT-15 it was 16.2 µM; with NCI-H226, 15.3 µM (inactive); in the assay with NCI-H23 it was 15.5 µM (inactive); in the assay with NCI-H522, 10 µM (inactive); with NCI/ADR-RES, 17.1 µM (inactive). Further, the GI50 was 14 µM (inactive) in the assay on ACHN; 20.3 µM (inactive) in the assay on SK-OV-3; 12.3 µM (inactive) with A498; 13.6 µM (inactive) in the assay with OVCAR-5; 15.6 µM (inactive) in the assay on CAKI-1; 15.1 µM (inactive) in the assay with MDA-MB-435. The GI50 with M14 is 18.6 µM (inactive); in the assay on MCF7, 14.7 µM (inactive).

Consider `CC(=O)Nc1ccc2c3c(cc(O)c2c1)N(C(=O)CCCCCCC(=O)N1CC(CCl)c2c1cc(O)c1cc(NC(C)=O)ccc21)CC3CCl` (stereo not given), for which the GI50 is < 0.01 µM (active) in the assay on DU-145; < 0.01 µM (active) in the assay with MOLT-4; 0.0251 µM (active) in the assay with TK-10; < 0.01 µM (active) in the assay on SK-MEL-5; 0.0306 µM (active) with Hs-578T; < 0.01 µM (active) in the assay on U-251. In addition, the GI50 is < 0.01 µM (active) with OVCAR-8; 0.231 µM in the assay on HCT-15; < 0.01 µM (active) in the assay with NCI-H226; < 0.01 µM (active) in the assay with NCI-H23; < 0.01 µM (active) in the assay with NCI-H522; 0.673 µM (active) in the assay on NCI/ADR-RES. Moreover, the GI50 in the assay with ACHN is < 0.01 µM (active); with SK-OV-3, 0.017 µM (active); in the assay with A498, < 0.01 µM (active); with OVCAR-5, 0.0325 µM (active); in the assay with CAKI-1 it was < 0.0152 µM (active); in the assay with MDA-MB-435, 0.0127 µM (active). Besides, the GI50 in the assay with M14 and in the assay on MCF7 was < 0.01 µM (active) throughout.

As to `C=C1C(=O)OC2C(C)C3C=CC(=O)[C@@]3(C)C(OC(=O)/C(C)=C/C)C1[C@@H]2OC(C)=O` (stereo not given in full), the GI50 in the assay with DU-145 is 1.36 µM (inactive); in the assay with MOLT-4, 0.334 µM (active); in the assay with TK-10, 0.452 µM (active); in the assay on SK-MEL-5, 1.46 µM (inactive); with Hs-578T, 0.308 µM (active); in the assay with U-251, 1.15 µM (inactive). Besides, the GI50 in the assay with OVCAR-8 was 0.24 µM (active); with HCT-15, 0.247 µM; in the assay with NCI-H226 it was 1.73 µM (inactive); with NCI-H23 it was 0.467 µM (active); in the assay on NCI-H522, 0.131 µM (active); with NCI/ADR-RES, 0.237 µM (active). Besides, the GI50 with ACHN was 0.589 µM (active); with SK-OV-3, 1.59 µM (inactive); in the assay on A498 it was 1.49 µM (inactive); in the assay on OVCAR-5, 1.88 µM (inactive); with CAKI-1, 0.553 µM (active); in the assay on MDA-MB-435, 0.267 µM (active). Further, the GI50 is 0.673 µM (active) in the assay on M14 and 0.458 µM (active) with MCF7.

These data come from ChEMBL document CHEMBL1201862, “PubChem BioAssay data set” (2004).
